# In ChEMBL document CHEMBL1201862, “PubChem BioAssay data set” (2004):
# The source made the active and inactive calls.
# Experiments:
# [1] = target: Induced myeloid leukemia cell differentiation protein Mcl-1 (Homo sapiens, UniProt Q07820); type: functional
# [2] = target: Beta Lactamase (Pseudomonas aeruginosa, UniProt Q932Y6); assay: BLA reporter interference, concentration series – BLA reporter cells, FRET fluorescence, artefact control for TLR9-MyD88 binding inhibitor project, dose response (AID 588341); type: cell-based;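 also: cell based assay in CHO-K1 cells stably expressing beta-lactamase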
# [3] = target: T1, Voltage-gated N-type calcium channel alpha-1B subunit/Amyloid beta A4 precursor protein-binding family A member 1 (Homo sapiens, UniProt Q00975+Q02410); type: protein assay
# [4] = test system: CHO; assay: CHO cell viability loss, potency – luminescence, cytotoxicity control for TLR9-MyD88 binding inhibitor project, dose response (AID 588339); type: functional, cell-based, hamster; conditions: Cricetulus griseus;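 also: CHO cells stably coexpressing TLR9 and MyD88 fusions from primary screen; compound exposure lasted 48 hours before viability readout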
# [5] = target: T1, Voltage-gated N-type calcium channel alpha-1B subunit/Amyloid beta A4 precursor protein-binding family A member 1; type: protein assay; remark: listed apart in the source
# [6] = target: Short transient receptor potential channel 6 (Mus musculus, UniProt Q61143); assay: mouse TRPC6 channel blockers, concentration series – HEK293 cells, membrane potential dye, IC50, selectivity assay for selective TRPC4 inhibitor project, dose response (AID 492987); type: functional, cell-based
# [7] = target: T2, Short transient receptor potential channel 4 (Mus musculus, UniProt Q9QUQ5); assay: SAR Analysis for the identification of selective inhibits of the transient receptor potential cation channel C4 (TRPC4): Automated Electrophysiology_2. [Related pubchem assays (depositor defined):AID2256]; type: functional
# T2 sequence (Q9QUQ5 whole entry): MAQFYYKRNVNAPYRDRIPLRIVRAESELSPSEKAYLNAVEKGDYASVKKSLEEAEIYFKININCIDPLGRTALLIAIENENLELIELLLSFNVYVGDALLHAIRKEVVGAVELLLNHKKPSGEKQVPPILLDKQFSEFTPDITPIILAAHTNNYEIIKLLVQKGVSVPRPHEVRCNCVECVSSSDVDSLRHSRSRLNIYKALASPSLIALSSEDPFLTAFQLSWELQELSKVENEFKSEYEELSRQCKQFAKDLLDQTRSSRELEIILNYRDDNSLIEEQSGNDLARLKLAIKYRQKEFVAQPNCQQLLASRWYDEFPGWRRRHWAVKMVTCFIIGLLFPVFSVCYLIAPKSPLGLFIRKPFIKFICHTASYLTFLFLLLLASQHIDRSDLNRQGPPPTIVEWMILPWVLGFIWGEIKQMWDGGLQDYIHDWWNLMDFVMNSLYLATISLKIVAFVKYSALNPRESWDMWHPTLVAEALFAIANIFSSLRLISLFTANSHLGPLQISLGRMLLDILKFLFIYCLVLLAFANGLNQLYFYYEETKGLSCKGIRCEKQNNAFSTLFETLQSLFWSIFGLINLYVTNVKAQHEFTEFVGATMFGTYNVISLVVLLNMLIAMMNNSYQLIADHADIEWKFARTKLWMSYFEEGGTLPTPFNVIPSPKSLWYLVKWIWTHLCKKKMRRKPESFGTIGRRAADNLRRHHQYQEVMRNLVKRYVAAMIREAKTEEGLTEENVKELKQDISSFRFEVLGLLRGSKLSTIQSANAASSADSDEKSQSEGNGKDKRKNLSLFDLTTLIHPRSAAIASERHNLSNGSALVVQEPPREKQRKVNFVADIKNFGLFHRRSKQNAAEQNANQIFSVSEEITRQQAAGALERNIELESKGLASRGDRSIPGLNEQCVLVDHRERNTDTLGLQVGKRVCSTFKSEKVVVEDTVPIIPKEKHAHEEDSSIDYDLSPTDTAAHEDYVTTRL
# [8] = target: T2, Short transient receptor potential channel 4; assay: potency of mouse TRPC4 calcium flux blockers – cell-based, HEK293 TRPC4/mu-opioid, DAMGO stimulus, Fluo-4, dose response (AID 492994); type: functional
# [9] = test system: HEK293; assay: optical interference in Abeta FP readout, dose response, artefact control for IDE activator project, biochemical, fluorescence polarization (AID 588442); type: functional, cell-based; conditions: Homo sapiens
# [10] = Luminescence Cell-Based Dose Response HTS to Identify Activators of Luciferase Translation or Activity in H4 […] Cells. [Related pubchem assays: 1829 (Project Summary), 1814 (Primary HTS)]; type: functional
# [11] = target: T3, Insulin-degrading enzyme (Homo sapiens, UniProt P14735); assay: cellular IDE activation of Abeta substrate cleavage – fluorescence polarization, HEK cells, dose response (AID 588439); type: functional, cell-based
# T3 sequence (P14735 whole entry): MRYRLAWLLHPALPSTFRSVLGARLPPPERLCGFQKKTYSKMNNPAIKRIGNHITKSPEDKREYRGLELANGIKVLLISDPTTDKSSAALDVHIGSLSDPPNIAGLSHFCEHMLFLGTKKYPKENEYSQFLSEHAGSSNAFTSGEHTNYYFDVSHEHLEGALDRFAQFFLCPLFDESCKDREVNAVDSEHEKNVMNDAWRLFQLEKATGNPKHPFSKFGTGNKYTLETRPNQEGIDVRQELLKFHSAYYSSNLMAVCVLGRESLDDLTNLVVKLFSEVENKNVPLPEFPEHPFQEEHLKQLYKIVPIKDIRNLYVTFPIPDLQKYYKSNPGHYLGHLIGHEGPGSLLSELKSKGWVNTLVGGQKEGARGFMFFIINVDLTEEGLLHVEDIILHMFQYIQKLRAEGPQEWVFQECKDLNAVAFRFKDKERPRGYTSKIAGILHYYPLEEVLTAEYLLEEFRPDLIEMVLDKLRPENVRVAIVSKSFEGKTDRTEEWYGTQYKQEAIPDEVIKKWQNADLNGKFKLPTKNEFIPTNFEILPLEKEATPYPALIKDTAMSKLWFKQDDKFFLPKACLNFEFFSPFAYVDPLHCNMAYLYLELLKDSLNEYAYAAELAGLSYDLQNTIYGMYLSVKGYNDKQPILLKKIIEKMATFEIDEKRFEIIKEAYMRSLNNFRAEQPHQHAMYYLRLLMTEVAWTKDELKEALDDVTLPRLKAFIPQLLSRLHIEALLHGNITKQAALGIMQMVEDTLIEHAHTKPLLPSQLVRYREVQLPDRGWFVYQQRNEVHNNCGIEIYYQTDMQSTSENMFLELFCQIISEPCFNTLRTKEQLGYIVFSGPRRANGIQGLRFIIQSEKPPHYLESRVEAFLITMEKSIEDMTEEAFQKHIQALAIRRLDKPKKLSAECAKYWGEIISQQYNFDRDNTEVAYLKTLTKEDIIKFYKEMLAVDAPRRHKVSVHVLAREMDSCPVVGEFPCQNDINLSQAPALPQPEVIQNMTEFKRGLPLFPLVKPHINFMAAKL
# [12] = test system: H4; assay: Luminescence Cell-Based Dose Response HTS to Identify Activators of 5'UTR Stem-Loop Driven Prion Protein mRNA Translation in H4 Neuroglioblastoma Cells. [Related pubchem assays: 1829 (Project Summary), 1814 (Primary HTS)]; type: functional; conditions: Homo sapiens
# [13] = target: T3, Insulin-degrading enzyme; assay: recombinant IDE activation, cell-free – biochemical, fluorescence polarization, counter-screen for IDE activator project, dose response (AID 588681)
# [14] = Luminescence Cell-Based Dose Confirmation HTS to Identify Activators of 5'UTR Stem-Loop Driven Alpha-Synuclein mRNA Translation in H4 Neuroglioblastoma Cells. [Related pubchem assays: 1829 (Project Summary), 1814 (Primary HTS)]; type: functional
# [15] = test system: HEK293; assay: membrane integrity loss in HEK cells – cell-based, fluorescence, cytotoxicity control for IDE activator project, dose response (AID 588440); type: functional; conditions: Homo sapiens;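 also: cytotoxicity by LDH release measuring loss of membrane integrity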
# [16] = target: T4, Hexokinase-1 (Homo sapiens, UniProt P19367); assay: SAR analysis of small molecule inhibitors of hexokinase domain containing I (HKDC1) in the hexokinase 1 selectivity assay. [Related pubchem assays (depositor defined):AID493160, AID493190]; type: functional
# T4 sequence (P19367 whole entry): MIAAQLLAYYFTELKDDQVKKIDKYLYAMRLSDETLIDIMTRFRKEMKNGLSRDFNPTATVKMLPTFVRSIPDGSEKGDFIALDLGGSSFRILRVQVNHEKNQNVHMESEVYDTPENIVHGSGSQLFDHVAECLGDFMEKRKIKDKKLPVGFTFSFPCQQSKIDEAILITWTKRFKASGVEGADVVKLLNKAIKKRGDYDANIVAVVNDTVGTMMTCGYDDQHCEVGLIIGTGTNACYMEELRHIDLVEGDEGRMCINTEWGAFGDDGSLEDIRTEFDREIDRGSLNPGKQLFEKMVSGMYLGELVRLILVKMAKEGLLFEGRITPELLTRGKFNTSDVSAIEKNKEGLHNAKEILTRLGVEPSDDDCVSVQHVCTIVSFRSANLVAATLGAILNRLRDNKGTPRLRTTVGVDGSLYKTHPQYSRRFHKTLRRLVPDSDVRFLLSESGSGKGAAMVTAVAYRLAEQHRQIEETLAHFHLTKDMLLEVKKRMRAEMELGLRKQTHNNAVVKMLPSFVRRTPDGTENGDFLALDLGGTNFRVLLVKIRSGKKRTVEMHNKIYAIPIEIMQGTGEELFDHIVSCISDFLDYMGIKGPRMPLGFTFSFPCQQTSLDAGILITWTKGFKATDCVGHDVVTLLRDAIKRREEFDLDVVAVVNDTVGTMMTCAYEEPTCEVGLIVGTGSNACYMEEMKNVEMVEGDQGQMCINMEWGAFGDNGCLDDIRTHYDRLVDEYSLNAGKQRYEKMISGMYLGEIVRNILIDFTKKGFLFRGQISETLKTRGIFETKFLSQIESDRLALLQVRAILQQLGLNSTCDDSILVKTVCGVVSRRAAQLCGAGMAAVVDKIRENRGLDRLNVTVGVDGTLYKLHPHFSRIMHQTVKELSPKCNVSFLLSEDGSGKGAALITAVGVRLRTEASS
# [17] = target: T5, Hexokinase HKDC1 (Homo sapiens, UniProt Q2TB90); assay: SAR analysis of small molecule inhibitors of hexokinase domain containing I (HKDC1). [Related pubchem assays (depositor defined):AID493160, AID493190]; type: functional
# T5 sequence (Q2TB90 whole entry): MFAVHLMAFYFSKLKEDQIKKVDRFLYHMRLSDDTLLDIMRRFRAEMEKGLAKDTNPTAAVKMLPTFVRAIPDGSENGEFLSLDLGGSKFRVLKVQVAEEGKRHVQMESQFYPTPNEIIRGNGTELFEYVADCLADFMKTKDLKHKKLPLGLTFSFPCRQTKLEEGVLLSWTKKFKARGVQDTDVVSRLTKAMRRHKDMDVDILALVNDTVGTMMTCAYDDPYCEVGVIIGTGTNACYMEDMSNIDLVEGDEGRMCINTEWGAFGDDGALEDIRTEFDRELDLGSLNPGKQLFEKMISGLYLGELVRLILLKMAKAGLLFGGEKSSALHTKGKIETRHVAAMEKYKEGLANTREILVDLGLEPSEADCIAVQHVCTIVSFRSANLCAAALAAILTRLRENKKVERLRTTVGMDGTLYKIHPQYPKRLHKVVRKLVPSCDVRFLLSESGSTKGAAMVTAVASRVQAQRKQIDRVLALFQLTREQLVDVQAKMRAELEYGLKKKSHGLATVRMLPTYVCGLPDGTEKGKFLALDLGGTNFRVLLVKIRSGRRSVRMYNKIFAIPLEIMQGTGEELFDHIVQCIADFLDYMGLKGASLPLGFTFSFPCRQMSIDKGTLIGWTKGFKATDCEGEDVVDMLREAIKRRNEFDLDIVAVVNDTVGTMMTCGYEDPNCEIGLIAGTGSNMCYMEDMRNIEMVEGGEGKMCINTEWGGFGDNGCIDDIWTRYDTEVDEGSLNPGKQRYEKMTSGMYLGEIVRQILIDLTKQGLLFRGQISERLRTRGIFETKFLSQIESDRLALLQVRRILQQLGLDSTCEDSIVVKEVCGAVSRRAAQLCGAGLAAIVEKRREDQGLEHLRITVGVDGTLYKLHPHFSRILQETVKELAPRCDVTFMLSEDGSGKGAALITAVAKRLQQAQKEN
# [18] = viability loss in THP-1 monocytes – THP-1 cells, cytotoxicity control for Vif-APOBEC3G degradation inhibitor project, dose response (AID 1117359); type: functional; conditions: THP-1
# Sequence of Beta Lactamase (Q932Y6 whole entry): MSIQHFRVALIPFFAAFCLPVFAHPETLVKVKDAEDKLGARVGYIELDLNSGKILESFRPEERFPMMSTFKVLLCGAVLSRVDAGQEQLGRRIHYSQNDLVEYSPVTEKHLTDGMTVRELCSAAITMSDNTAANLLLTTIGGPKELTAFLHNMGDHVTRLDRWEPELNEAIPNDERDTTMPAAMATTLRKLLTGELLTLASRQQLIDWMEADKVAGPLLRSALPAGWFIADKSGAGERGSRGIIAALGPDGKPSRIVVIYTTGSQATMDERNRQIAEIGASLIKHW
# T1 sequence (Q00975 whole entry, the tested form may be a part): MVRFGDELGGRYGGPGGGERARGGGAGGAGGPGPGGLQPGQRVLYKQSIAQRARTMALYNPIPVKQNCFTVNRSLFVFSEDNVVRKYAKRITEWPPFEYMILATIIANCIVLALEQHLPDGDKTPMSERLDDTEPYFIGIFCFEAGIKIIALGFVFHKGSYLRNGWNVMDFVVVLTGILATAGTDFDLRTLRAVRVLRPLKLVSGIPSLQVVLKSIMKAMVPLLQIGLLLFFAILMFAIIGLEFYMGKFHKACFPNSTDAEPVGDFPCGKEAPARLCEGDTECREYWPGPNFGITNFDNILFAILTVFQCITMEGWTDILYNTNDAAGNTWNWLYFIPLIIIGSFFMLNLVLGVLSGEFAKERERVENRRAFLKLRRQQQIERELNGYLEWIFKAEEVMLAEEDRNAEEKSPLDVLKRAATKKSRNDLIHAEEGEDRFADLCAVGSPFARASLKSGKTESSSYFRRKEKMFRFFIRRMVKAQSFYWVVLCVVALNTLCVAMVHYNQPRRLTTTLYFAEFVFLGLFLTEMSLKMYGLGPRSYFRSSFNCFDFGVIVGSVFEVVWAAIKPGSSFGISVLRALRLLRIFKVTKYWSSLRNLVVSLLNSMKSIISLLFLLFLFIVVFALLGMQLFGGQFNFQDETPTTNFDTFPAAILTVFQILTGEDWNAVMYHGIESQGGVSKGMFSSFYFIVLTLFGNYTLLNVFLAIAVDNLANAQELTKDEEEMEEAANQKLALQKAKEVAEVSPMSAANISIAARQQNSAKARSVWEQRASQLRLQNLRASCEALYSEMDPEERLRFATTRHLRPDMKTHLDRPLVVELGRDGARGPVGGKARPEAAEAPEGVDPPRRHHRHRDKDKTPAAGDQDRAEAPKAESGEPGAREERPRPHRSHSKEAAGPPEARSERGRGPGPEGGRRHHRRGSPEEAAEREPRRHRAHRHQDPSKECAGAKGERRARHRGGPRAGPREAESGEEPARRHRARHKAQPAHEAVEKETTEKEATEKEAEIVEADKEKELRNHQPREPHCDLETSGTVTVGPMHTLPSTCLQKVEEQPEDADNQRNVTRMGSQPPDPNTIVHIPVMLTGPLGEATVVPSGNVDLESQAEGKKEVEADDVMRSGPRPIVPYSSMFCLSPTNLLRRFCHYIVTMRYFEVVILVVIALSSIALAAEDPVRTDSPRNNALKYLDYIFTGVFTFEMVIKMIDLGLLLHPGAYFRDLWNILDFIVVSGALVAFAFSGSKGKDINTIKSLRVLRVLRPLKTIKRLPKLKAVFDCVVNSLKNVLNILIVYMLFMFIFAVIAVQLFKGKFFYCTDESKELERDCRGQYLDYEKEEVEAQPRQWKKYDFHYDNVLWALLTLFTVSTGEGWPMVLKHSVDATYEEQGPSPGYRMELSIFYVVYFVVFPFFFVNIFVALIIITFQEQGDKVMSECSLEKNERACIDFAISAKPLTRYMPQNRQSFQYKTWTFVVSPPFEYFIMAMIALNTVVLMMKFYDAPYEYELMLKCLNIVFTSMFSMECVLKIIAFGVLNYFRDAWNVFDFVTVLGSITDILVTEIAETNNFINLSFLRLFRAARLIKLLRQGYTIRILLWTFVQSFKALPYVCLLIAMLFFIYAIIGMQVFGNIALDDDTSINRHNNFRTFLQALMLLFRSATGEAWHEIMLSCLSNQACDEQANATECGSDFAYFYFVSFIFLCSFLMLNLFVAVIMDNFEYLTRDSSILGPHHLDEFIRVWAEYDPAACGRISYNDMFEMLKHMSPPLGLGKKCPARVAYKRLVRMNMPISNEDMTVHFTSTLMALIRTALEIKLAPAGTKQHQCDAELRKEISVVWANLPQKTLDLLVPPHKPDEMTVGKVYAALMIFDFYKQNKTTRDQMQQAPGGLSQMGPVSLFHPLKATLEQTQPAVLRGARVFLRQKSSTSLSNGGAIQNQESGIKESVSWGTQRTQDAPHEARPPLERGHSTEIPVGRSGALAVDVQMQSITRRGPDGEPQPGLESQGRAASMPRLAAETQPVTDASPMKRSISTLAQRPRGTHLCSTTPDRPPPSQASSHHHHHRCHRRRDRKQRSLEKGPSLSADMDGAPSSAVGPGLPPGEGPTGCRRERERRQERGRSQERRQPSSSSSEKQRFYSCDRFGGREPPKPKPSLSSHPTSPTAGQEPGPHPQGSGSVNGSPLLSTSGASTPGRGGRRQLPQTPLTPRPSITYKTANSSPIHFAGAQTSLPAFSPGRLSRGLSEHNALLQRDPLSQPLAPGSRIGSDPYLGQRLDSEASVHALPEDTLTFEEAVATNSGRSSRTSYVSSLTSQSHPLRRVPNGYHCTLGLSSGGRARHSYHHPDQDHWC
# T1 sequence (Q02410 whole entry, the tested form may be a part): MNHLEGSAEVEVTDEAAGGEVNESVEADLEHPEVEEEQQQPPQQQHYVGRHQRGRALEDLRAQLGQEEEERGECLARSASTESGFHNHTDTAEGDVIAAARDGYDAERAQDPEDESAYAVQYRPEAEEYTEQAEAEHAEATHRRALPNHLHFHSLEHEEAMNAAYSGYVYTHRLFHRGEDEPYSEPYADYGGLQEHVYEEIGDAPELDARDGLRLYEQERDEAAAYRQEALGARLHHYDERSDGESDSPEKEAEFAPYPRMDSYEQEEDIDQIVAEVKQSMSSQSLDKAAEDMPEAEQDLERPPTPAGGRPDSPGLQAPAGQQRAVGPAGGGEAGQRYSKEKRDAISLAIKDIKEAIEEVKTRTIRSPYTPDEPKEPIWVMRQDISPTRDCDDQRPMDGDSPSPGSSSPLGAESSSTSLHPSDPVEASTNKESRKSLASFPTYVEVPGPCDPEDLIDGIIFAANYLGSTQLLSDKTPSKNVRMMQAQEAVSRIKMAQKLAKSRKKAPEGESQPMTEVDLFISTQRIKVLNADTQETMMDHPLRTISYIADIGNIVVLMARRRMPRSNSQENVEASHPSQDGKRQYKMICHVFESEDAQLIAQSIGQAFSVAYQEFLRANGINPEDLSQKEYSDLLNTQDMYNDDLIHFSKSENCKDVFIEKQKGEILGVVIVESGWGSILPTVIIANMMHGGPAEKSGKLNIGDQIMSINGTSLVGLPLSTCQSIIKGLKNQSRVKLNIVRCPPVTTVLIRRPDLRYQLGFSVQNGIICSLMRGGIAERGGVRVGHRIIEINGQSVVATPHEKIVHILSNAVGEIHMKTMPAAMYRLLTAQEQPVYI
# Sequence of Induced myeloid leukemia cell differentiation protein Mcl-1 (Q07820 whole entry): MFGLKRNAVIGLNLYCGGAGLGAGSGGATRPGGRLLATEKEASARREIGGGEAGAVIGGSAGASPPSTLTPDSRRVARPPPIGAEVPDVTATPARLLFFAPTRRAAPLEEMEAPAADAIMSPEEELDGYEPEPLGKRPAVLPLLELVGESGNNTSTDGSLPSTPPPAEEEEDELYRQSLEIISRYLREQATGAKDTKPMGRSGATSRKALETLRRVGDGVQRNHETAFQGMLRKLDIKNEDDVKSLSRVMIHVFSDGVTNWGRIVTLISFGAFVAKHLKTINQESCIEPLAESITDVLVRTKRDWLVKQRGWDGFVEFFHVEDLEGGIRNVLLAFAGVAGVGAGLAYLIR
# Sequence of Short transient receptor potential channel 6 (Q61143 whole entry): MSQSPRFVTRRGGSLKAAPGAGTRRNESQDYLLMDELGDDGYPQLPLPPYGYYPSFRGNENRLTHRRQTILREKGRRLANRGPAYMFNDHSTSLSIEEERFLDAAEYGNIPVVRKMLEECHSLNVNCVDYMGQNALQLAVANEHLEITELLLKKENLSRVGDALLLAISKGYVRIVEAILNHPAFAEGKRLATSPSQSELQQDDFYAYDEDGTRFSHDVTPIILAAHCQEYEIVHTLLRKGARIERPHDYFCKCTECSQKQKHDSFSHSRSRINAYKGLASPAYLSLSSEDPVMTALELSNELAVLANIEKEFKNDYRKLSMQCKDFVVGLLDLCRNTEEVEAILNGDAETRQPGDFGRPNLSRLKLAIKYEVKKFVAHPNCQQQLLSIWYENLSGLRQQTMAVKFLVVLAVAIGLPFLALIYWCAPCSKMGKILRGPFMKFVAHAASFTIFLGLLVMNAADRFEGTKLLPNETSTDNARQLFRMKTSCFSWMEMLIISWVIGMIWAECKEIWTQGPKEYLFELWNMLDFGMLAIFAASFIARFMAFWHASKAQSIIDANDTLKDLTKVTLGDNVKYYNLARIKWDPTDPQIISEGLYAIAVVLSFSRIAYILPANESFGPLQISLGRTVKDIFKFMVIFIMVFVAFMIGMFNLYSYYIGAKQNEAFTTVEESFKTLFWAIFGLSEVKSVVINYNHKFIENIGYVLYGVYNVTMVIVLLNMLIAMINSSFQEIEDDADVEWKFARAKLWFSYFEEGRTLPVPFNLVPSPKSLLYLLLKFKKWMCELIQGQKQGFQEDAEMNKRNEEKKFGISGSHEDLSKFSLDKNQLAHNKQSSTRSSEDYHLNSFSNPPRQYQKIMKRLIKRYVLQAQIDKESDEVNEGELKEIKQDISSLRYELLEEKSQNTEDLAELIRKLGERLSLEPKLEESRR
structure (smiles),measurement,setting,value
Cc1cc2nc(/C=C/c3nc4cc(C)c(C)cc4[nH]3)[nH]c2cc1C,IC50,[1],3.67 µM (active)
same,IC50,[2],20.9 µM (inactive)
same,IC50,[3],18.5 µM (active)
same,IC50,[4],> 49.7 µM (inactive)
same,IC50,[5],> 50 µM (inactive)
Cc1ccc2nc(N3CCCCCC3)cc(C)c2c1,IC50,[6],12.8 µM (active)
same,IC50,[7],0.9 µM (active)
same,IC50,[8],1.3 µM (active)
Cc1ccc(NC(=O)C2C3C=CC4(CN(Cc5cccnc5)C(=O)C24)O3)cc1 (stereo unspecified),EC50,[9],> 55.9 µM (inactive)
same,EC50,[10],11.9 µM (active)
same,EC50,[11],> 54.7 µM (inactive)
same,EC50,[12],14 µM (active)
same,EC50,[13],> 54.7 µM (inactive)
same,EC50,[14],> 120 µM (not active)
same,IC50,[15],> 89.2 µM (inactive)
O=c1c2ccccc2nc(/C=C/c2cccnc2)n1Cc1ccc(F)cc1,IC50,[16],> 80 µM (inactive)
same,IC50,[17],> 80 µM (inactive)
Cc1cc(C)c(S(=O)(=O)Nc2cc(SCCC(=O)O)c(O)c3ccccc23)cc1C,IC50,[16],> 80 µM (inactive)
same,IC50,[17],9.9 µM (active)
CC[C@H](C)/C=C(C)/C=C/C1=CC2=CC(=O)[C@]3(C)OC(=O)[C@@H](C(C)=O)[C@@H]3C2=CO1,IC50,[2],8.86 µM (active)
same,CC50,[18],> 40 µM (active)
same,IC50,[4],> 49.7 µM (inactive)
NC(=O)Cn1cc(/C=N\NS(=O)(=O)c2ccc(Cl)cc2)c2ccccc21,EC50,[9],> 55.9 µM (inactive)
same,EC50,[11],> 54.7 µM (inactive)
same,EC50,[13],> 54.7 µM (inactive)
same,IC50,[15],> 89.1 µM (inactive)
